# Values quoted from earlier work in patent US6667342B1, “Benzenesulfonamide-derivatives and their use as medicaments” (Astrazeneca AB, priority 1998, dated 2003).
smiles,measurement,setting,value
"O=C(O)C(Cl)Cl [DCA, dichloroacetic acid]",activity of PDH,PDH; after acute administration in animals (Vary et al. 1988),increases
same,proportion of PDH in its active form,"PDH; single administration, 150 mg/kg, intraperitoneally (Vary et al. 1988)",increased
same,glycaemia,Stacpoole et al. 1978,reducing glycaemia
same,plasma glucose,after repeated administration (Evans and Stacpoole 1982),significant decrease
